From PubChem BioAssay AID328 (DTP/NCI, 2004)
Several values for one entry are separate records, joined by “and”; a condition that tells them apart may be missing. Equal values may be shown once. Toxic doses and inconclusive results are not listed.

Test system: BDF1 mice, P388 leukemia ip, median survival T/C
Experiment: NCI In Vivo Anticancer Drug Screen. Data for tumor model P388 Leukemia (intraperitoneal) in B6D2F1 (BDF1) mice
Settings: endpoint: median survival time, higher = longer survival
How it was run: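 In tumour-bearing mice, survival after compound treatment is set against the vehicle group and given as a quotient.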

[1] = dose: 100.0 mg/kg/injection, schedule: Q01DX001 (ip), vehicle: saline with Tween-80
[2] = dose: 25.0 mg/kg/injection, schedule: Q01DX009 (ip), vehicle: saline
[3] = dose: 50.0 mg/kg/injection, schedule: Q01DX009 (ip), vehicle: saline
[4] = dose: 100.0 mg/kg/injection, schedule: Q04DX003 (ip), vehicle: Klucel (hydroxypropylcellulose) (HPC)
[5] = dose: 200.0 mg/kg/injection, schedule: Q04DX003 (ip), vehicle: Klucel (hydroxypropylcellulose) (HPC)
[6] = dose: 12.5 mg/kg/injection, schedule: Q01DX009 (ip), vehicle: other
[7] = dose: 25.0 mg/kg/injection, schedule: Q01DX009 (ip), vehicle: other
[8] = dose: 100.0 mg/kg/injection, schedule: Q01DX009 (ip), vehicle: saline
[9] = dose: 200.0 mg/kg/injection, schedule: Q01DX009 (ip), vehicle: saline
[10] = dose: 100.0 mg/kg/injection, schedule: Q04DX003 (ip), vehicle: saline
[11] = dose: 200.0 mg/kg/injection, schedule: Q04DX003 (ip), vehicle: saline

CCOC(=O)C(N=C=S)C(C)CC (stereo not drawn)
T/C [1]: 115 % of control
T/C (dose: 200.0 mg/kg/injection, schedule: Q01DX001 (ip), vehicle: saline with Tween-80): 107 % of control
T/C (dose: 400.0 mg/kg/injection, schedule: Q01DX001 (ip), vehicle: saline with Tween-80): 118 % of control

Cc1cc(NC(=O)NCc2ccc(N3C(N)=NC(N)=NC3(C)C)cc2)ccc1S(=O)(=O)F
T/C (dose: 2.1 mg/kg/injection, schedule: Q01DX009 (ip), vehicle: saline with Tween-80): 108 % of control
T/C (dose: 3.1 mg/kg/injection, schedule: Q01DX009 (ip), vehicle: saline with Tween-80): 113 % of control
T/C (dose: 4.8 mg/kg/injection, schedule: Q01DX009 (ip), vehicle: saline): 123 % of control
T/C [2]: 172 % of control
T/C (dose: 45.0 mg/kg/injection, schedule: Q04DX003 (ip), vehicle: saline with Tween-80): 150 % of control
T/C [3]: 209 % of control
T/C (dose: 100.0 mg/kg/injection, schedule: Q04DX003 (ip), vehicle: alcohol): 115 % of control
T/C (dose: 264.0 mg/kg/injection, schedule: Q04DX003 (ip), vehicle: saline): 195 % of control
T/C (dose: 400.0 mg/kg/injection, schedule: Q04DX003 (ip), vehicle: alcohol): 155 % of control

CCN(C)c1ccc(/C=C/c2ccnc3ccccc23)cc1
T/C (dose: 12.5 mg/kg/injection, schedule: Q01DX009 (ip), vehicle: saline with Tween-80): 115 % of control
T/C (dose: 25.0 mg/kg/injection, schedule: Q01DX009 (ip), vehicle: saline with Tween-80): 91 % of control
T/C (dose: 50.0 mg/kg/injection, schedule: Q01DX009 (ip), vehicle: saline with Tween-80): 99 % of control

CCCCCCCCC(C(O)c1ccccc1)C(O)(C(F)(F)F)C(F)(F)F (stereo not drawn)
T/C (dose: 100.0 mg/kg/injection, schedule: Q04DX003 (ip), vehicle: other): 90 % of control
T/C (dose: 200.0 mg/kg/injection, schedule: Q04DX003 (ip), vehicle: other): 95 % of control
T/C (dose: 400.0 mg/kg/injection, schedule: Q04DX003 (ip), vehicle: other): 115 % of control

COc1c2c(c3c(c1OC)c(=O)c1ccccc1n3C)OCO2
T/C (dose: 45.0 mg/kg/injection, schedule: Q01DX010 (ip), vehicle: carboxymethylcellulose (CMC)): 90 % of control
T/C (dose: 90.0 mg/kg/injection, schedule: Q01DX010 (ip), vehicle: carboxymethylcellulose (CMC)): 104 % of control
T/C (dose: 180.0 mg/kg/injection, schedule: Q01DX010 (ip), vehicle: carboxymethylcellulose (CMC)): 95 % of control

c1ccc(C2SCSCS2)cc1
T/C [4]: 100 % of control
T/C [5]: 95 % of control
T/C (dose: 400.0 mg/kg/injection, schedule: Q04DX003 (ip), vehicle: Klucel (hydroxypropylcellulose) (HPC)): 95 % of control

COC(OC)C1(O)CC(C(C)/C=C(/C)C(CC(=O)N(C)c2ccccc2)OCc2ccccc2)OC(=O)N1 (stereo not drawn)
T/C (dose: 50.0 mg/kg/injection, schedule: Q04DX003 (ip), vehicle: Klucel (hydroxypropylcellulose) (HPC)): 99 % of control
T/C [4]: 109 % of control
T/C [5]: 118 % of control

NC(CSCc1ccccc1)(CSCc1ccccc1)C(=O)O
T/C [6]: 103 % of control
T/C [7]: 122 % of control
T/C (dose: 50.0 mg/kg/injection, schedule: Q01DX009 (ip), vehicle: other): 97 % of control and 110 % of control
T/C (dose: 100.0 mg/kg/injection, schedule: Q01DX009 (ip), vehicle: other): 117 % of control
T/C (dose: 200.0 mg/kg/injection, schedule: Q01DX009 (ip), vehicle: other): 96 % of control
T/C (dose: 400.0 mg/kg/injection, schedule: Q01DX009 (ip), vehicle: other): 94 % of control

CC1=C(CO)C(=O)O[C@@H]([C@@H](C)[C@H]2CC[C@H]3[C@@H]4C[C@H]5O[C@]56[C@@H](O)C=CC(=O)[C@]6(C)[C@H]4CC[C@]23C)C1
T/C (dose: 5.0 mg/kg/injection, schedule: Q01DX010 (ip), vehicle: steriod suspending solution): 95 % of control
T/C (dose: 10.0 mg/kg/injection, schedule: Q01DX010 (ip), vehicle: steriod suspending solution): 100 % of control
T/C (dose: 20.0 mg/kg/injection, schedule: Q01DX010 (ip), vehicle: steriod suspending solution): 90 % of control
T/C (dose: 40.0 mg/kg/injection, schedule: Q01DX010 (ip), vehicle: steriod suspending solution): 104 % of control

N#C[SH2+].N#C[SH2+].N#C[SH2+].N#C[SH2+].[Cu+2].c1ccc(C[P+](c2ccccc2)(c2ccccc2)c2ccccc2)cc1
T/C [1]: 100 % of control

CCOC(=O)C1CSC2(CCCCC2)N1 (stereo not drawn)
T/C [3]: 92 % of control
T/C [8]: 94 % of control
T/C [9]: 109 % of control

CC(/C=C/c1ccccc1)=N\O
T/C (dose: 100.0 mg/kg/injection, schedule: Q04DX003 (ip), vehicle: saline sonified): 90 % of control
T/C (dose: 200.0 mg/kg/injection, schedule: Q04DX003 (ip), vehicle: saline sonified): 90 % of control
T/C (dose: 400.0 mg/kg/injection, schedule: Q04DX003 (ip), vehicle: saline sonified): 90 % of control

CCn1c(O)c(C=N)c(=O)[nH]c1=O
T/C [3]: 100 % of control
T/C (dose: 50.0 mg/kg/injection, schedule: Q04DX003 (ip), vehicle: saline): 103 % of control
T/C [8]: 109 % of control
T/C [10]: 100 % of control
T/C [9]: 109 % of control
T/C [11]: 115 % of control

CC(C)C(C=O)C(O)(C(F)(F)F)C(F)(F)Cl (stereo not drawn)
T/C (dose: 12.5 mg/kg/injection, schedule: Q01DX009 (ip), vehicle: saline): 95 % of control
T/C [2]: 100 % of control

O=C1CCC(=O)C12CCNCC2
T/C [10]: 100 % of control
T/C [11]: 100 % of control
T/C (dose: 400.0 mg/kg/injection, schedule: Q04DX003 (ip), vehicle: saline): 109 % of control

COc1cc([C@@H]2c3cc4c(cc3[C@H](O)[C@H]3COC(=O)[C@@H]23)OCO4)cc(OC)c1OC
T/C (dose: 7.7 mg/kg/injection, schedule: Q01DX010 (ip), vehicle: carboxymethylcellulose (CMC)): 115 % of control
T/C (dose: 12.0 mg/kg/injection, schedule: Q01DX009 (ip), vehicle: Klucel (hydroxypropylcellulose) (HPC)): 166 % of control
T/C (dose: 18.0 mg/kg/injection, schedule: Q01DX009 (ip), vehicle: Klucel (hydroxypropylcellulose) (HPC)): 185 % of control
T/C (dose: 27.0 mg/kg/injection, schedule: Q01DX009 (ip), vehicle: Klucel (hydroxypropylcellulose) (HPC)): 195 % of control
T/C (dose: 30.8 mg/kg/injection, schedule: Q01DX010 (ip), vehicle: carboxymethylcellulose (CMC)): 210 % of control
T/C (dose: 37.5 mg/kg/injection, schedule: Q04DX003 (ip), vehicle: saline sonified): 113 % of control
T/C (dose: 40.0 mg/kg/injection, schedule: Q01DX009 (ip), vehicle: Klucel (hydroxypropylcellulose) (HPC)): 233 % of control
T/C (dose: 60.0 mg/kg/injection, schedule: Q01DX009 (ip), vehicle: Klucel (hydroxypropylcellulose) (HPC)): 252 % of control
T/C (dose: 75.0 mg/kg/injection, schedule: Q04DX003 (ip), vehicle: saline sonified): 122 % of control
T/C (dose: 150.0 mg/kg/injection, schedule: Q04DX003 (ip), vehicle: saline sonified): 180 % of control and 204 % of control
T/C (dose: 225.0 mg/kg/injection, schedule: Q04DX003 (ip), vehicle: saline sonified): 300 % of control

C[N+](C)(C)/N=C1\CCc2ccccc21
T/C (dose: 50.0 mg/kg/injection, schedule: Q04DX003 (ip), vehicle: saline with Tween-80): 95 % of control
T/C (dose: 100.0 mg/kg/injection, schedule: Q04DX003 (ip), vehicle: saline with Tween-80): 95 % of control
T/C (dose: 200.0 mg/kg/injection, schedule: Q04DX003 (ip), vehicle: saline with Tween-80): 95 % of control

CC[C@H](/C=C/[C@@H](C)[C@H]1CC[C@H]2[C@@H]3CC=C4C[C@@H](OC(=O)/C=C\C(=O)O)CC[C@]4(C)[C@H]3CC[C@]12C)C(C)C
T/C (dose: 6.25 mg/kg/injection, schedule: Q01DX009 (ip), vehicle: other): 120 % of control
T/C [6]: 105 % of control
T/C (dose: 18.75 mg/kg/injection, schedule: Q04DX003 (ip), vehicle: other): 100 % of control
T/C [7]: 100 % of control
T/C (dose: 37.5 mg/kg/injection, schedule: Q04DX003 (ip), vehicle: other): 95 % of control
T/C (dose: 75.0 mg/kg/injection, schedule: Q04DX003 (ip), vehicle: other): 104 % of control

CC(C)(C)c1cccc(S(=O)(=O)Oc2ccccc2[N+](=O)[O-])c1
T/C (dose: 100.0 mg/kg/injection, schedule: Q01DX001 (ip), vehicle: saline sonified): 100 % of control
T/C (dose: 200.0 mg/kg/injection, schedule: Q01DX001 (ip), vehicle: saline sonified): 118 % of control
T/C (dose: 400.0 mg/kg/injection, schedule: Q01DX001 (ip), vehicle: saline sonified): 95 % of control
